Measured values: US10626368B2, “Method for inducing cerebral cortex neurons” (KYOTO UNIVERSITY, priority 2015, dated 2020)

Assays:
Format in all cases: cell-based, human
iPS cells (836B1) = experiment: Immunostaining for CoupTF1 and Ctip2 on day 46, suspension culture with various WNT inhibitors (Example 4); settings: 50 nM C59, 100 nM LGK-974, 1 μM ICG-001, day 46; C59 and LGK-974 compared with each other
Experimental: On the day before induction of differentiation, in order to separate the iPS cells (836B1), which had been cultured in a culture medium to which 10 μM Y-27632 had been added, from the SNL feeder cells, the SNL cells were removed with CTK and the remaining cells were then dissociated using Accumax. The cells were transferred on a 96-well plate (Lipidure-coat 96-well plate) in an amount of 9×10^3 cells per well. Thereafter, the cells were subjected to a suspension culture in DMEM/F12 comprising 50 μM Y-27632, 10 μM SB43152, 10 ng/ml bFGF, various types of Wnt inhibitors (50 nM C59, 100 nM LGK-974, or 1 μM ICG-001 (Cellagen Technology)), 100 nM LDN193189, 10% KSR, 0.1 mM MEM non-essential amino acid, 0.1 mM 2-mercaptoethanol, and 2 mM L-Gln (initiation of differentiation induction, day 0). […] Three days later, the medium was exchanged with DMEM/F12 comprising various types of WNT inhibitors (C59, LGK-974, or ICG-001), 100 nM LDN193189, 10% KSR, 0.1 mM MEM non-essential amino acid, 0.1 mM 2-mercaptoethanol, and 2 mM L-Gln (day 6). Thereafter, the medium was exchanged with a fresh one of the same type every 3 days, and the culture was carried out for 18 days after the initiation of differentiation induction (day 18).
A half of the medium on day 18 was removed by aspiration, and thereafter, Neurobasal, to which B27, 2 mM L-Gln, and 10 units/ml penicillin and streptomycin had been added, was added in the same amount as the removed medium to the remaining medium. Likewise, a half amount of the medium was exchanged on day 21. On day 24, the cells were transferred on a petri dish, and thereafter, a half of the medium was exchanged every 3 or 4 days. On day 46, the obtained cells were immunostained using antibodies against CoupTF1 and Ctip2. […] From the aforementioned results, it was confirmed that nerve cells existing in the desired corticocerebral motor area can be induced even by utilizing the WNT inhibitor LGK-974 having a similar action to C59.

[1] = tested on: ES cells or the iPS cells; experiment: Cell death / cytotoxicity in spheres on the 18th day of the culture; settings: 2 μM LDN193189, 18th day of the culture
Experimental: On the day before induction of differentiation, in order to separate the ES cells or the iPS cells, which had been cultured in a culture medium to which 10 μM Y-27632 (WAKO) had been added, from the SNL feeder cells, the SNL cells were removed with CTK and the remaining cells were then dissociated using Accumax (ICT). The cells were transferred on a 96-well plate (Lipidure-coat 96-well plate (NOF Corporation)) in an amount of 9×10^3 cells per well. Thereafter, the cells were subjected to a suspension culture in DMEM/F12 (WAKO) comprising 50 μM Y-27632 (WAKO), 10 μM SB43152 (Sigma), 10 ng/ml bFGF (Invitrogen), various types of Wnt inhibitors (DKK1 (R & D, 500 ng/ml), C59 (Cellagen Technology, 2-10 nM), XAV (Stemgent, 500 nM-2 μM) or IWP4 (Stemgent, 500 nM-2.5 μM)), LDN193189 (Stemgent), KSR (Invitrogen), 0.1 mM MEM non-essential amino acid (Invitrogen), 0.1 mM 2-mercaptoethanol (WAKO), and 2 mM L-Gln (Invitrogen) (initiation of differentiation induction, day 0). […] Three days later, the medium was exchanged with DMEM/F12 (WAKO) comprising various types of Wnt inhibitors (DKK1, C59, XAV or IWP4 (Stemgent)), LDN193189 (Stemgent), KSR (Invitrogen), 0.1 mM MEM non-essential amino acid (Invitrogen), 0.1 mM 2-mercaptoethanol (WAKO), and 2 mM L-Gln (Invitrogen) (day 6). […]

[2] = tested on: ES cells or the iPS cells; experiment: Immunostaining for CoupTF1 and Ctip2 after 46 days of cerebral cortex differentiation
From the text: (§1) Human ES cells (KhES-1) were obtained from Institute for Frontier Medical Sciences, Kyoto University (Suemori H, et al. Biochem Biophys Res Commun. 345: 926-32, 2006). The human iPS cells 404C2 are cells obtained by introducing Oct3/4, Sox2, Klf4, L-MYC, LIN28 and p53shRNA into human fibroblasts, using an episomal vector, and these cells were obtained from Professor Yamanaka et al. in Kyoto University (Okita, et al, Nat Methods. 8: 409-412, 2011). The human iPS cells 836B1 are cells obtained by introducing Oct3/4, Sox2, Klf4, L-MYC, LIN28, GLIS1 and p53shRNA into human fibroblasts, using an episomal vector, and these cells were obtained from Professor Yamanaka et al. in Kyoto University. The ES cells and the iPS cells were cultured on SNL cells (Takahashi K, et al, Cell. 131: 861-872, 2007).
On the day before induction of differentiation, in order to separate the ES cells or the iPS cells, which had been cultured in a culture medium to which 10 μM Y-27632 (WAKO) had been added, from the SNL feeder cells, the SNL cells were removed with CTK and the remaining cells were then dissociated using Accumax (ICT). The cells were transferred on a 96-well plate (Lipidure-coat 96-well plate (NOF Corporation)) in an amount of 9×10^3 cells per well. Thereafter, the cells were subjected to a suspension culture in DMEM/F12 (WAKO) comprising 50 μM Y-27632 (WAKO), 10 μM SB43152 (Sigma), 10 ng/ml bFGF (Invitrogen), various types of Wnt inhibitors (DKK1 (R & D, 500 ng/ml), C59 (Cellagen Technology, 2-10 nM), XAV (Stemgent, 500 nM-2 μM) or IWP4 (Stemgent, 500 nM-2.5 μM)), LDN193189 (Stemgent), KSR (Invitrogen), 0.1 mM MEM non-essential amino acid (Invitrogen), 0.1 mM 2-mercaptoethanol (WAKO), and 2 mM L-Gln (Invitrogen) (initiation of differentiation induction, day 0). […]
The concentration of LDN193189 used in the above-described induction method was examined. […] Furthermore, the expression levels of the CoupTF1 and Sfrp1 genes were measured according to a qPCR method (FIG. 5C). […]

[3] = tested on: ES cells or the iPS cells; experiment: qPCR of marker gene expression in cells differentiated with added inhibitors
From the text: as §1
On the day before induction of differentiation, in order to separate the ES cells or the iPS cells, which had been cultured in a culture medium to which 10 μM Y-27632 (WAKO) had been added, from the SNL feeder cells, the SNL cells were removed with CTK and the remaining cells were then dissociated using Accumax (ICT). The cells were transferred on a 96-well plate (Lipidure-coat 96-well plate (NOF Corporation)) in an amount of 9×10^3 cells per well. Thereafter, the cells were subjected to a suspension culture in DMEM/F12 (WAKO) comprising 50 μM Y-27632 (WAKO), 10 μM SB43152 (Sigma), 10 ng/ml bFGF (Invitrogen), various types of Wnt inhibitors (DKK1 (R & D, 500 ng/ml), C59 (Cellagen Technology, 2-10 nM), XAV (Stemgent, 500 nM-2 μM) or IWP4 (Stemgent, 500 nM-2.5 μM)), LDN193189 (Stemgent), KSR (Invitrogen), 0.1 mM MEM non-essential amino acid (Invitrogen), 0.1 mM 2-mercaptoethanol (WAKO), and 2 mM L-Gln (Invitrogen) (initiation of differentiation induction, day 0). […] Three days later, the medium was exchanged with DMEM/F12 (WAKO) comprising various types of Wnt inhibitors (DKK1, C59, XAV or IWP4 (Stemgent)), LDN193189 (Stemgent), KSR (Invitrogen), 0.1 mM MEM non-essential amino acid (Invitrogen), 0.1 mM 2-mercaptoethanol (WAKO), and 2 mM L-Gln (Invitrogen) (day 6). Thereafter, the medium was exchanged with a fresh one of the same type every 3 days, and the culture was carried out for 18 days after the initiation of differentiation induction (day 18).
The obtained cell mass was transferred on a dish (24-well plate (BD)) coated with 50 μg/ml ornithine (Sigma), 5 μg/ml laminin (Sigma) and 5 μg/ml fibronectin (BD Bioscience Pharmingen), and the culture was continued in Neurobasal (Invitrogen), to which B27 (Invitrogen), 2 mM L-Gln, and 10 units/ml penicillin and streptomycin (Invitrogen) had been added. The culture was carried out for, at maximum, 46 days after the initiation of differentiation induction. It is to be noted that the medium was exchanged with a fresh one every 2 or 3 days.
In the above-described induction method, 500 ng/ml DKK1, 2 nM C59, 500 nM XAV or 500 nM IWP4 was added as a Wnt inhibitor to the cells, and the obtained mixture was then cultured for 18 days. Thereafter, the expression levels of Six3 (forebrain marker), Sox1 (neuroectodermal marker), Foxg1 (cerebral cortex-forming factor), Lhx2 (cerebral cortex-forming factor), Emx2 (forebrain back portion marker), CoupTF1 (forebrain back portion marker) and Pax6 (forebrain front portion marker) genes in the cultured cells were measured by a qPCR method (FIG. 2).
The concentration of C59 used as a Wnt inhibitor in the above-described induction method was examined. Specifically, without using C59, or using 2.5 nM, 10 nM and 1 μM C59, the cells were cultured for 18 days. […] The obtained spheres were subjected to immunostaining of using an antibody against Pax6. […] Furthermore, the expression levels of the Foxg1, Lhx2, Emx2 and CoupTF1 genes in the obtained spheres were measured according to a qPCR method (FIG. 4B). As a result, the expression level of CoupTF1 was low and the expression levels of Lhx2 and Foxg1 were high in the case of using 10 nM C59. […]

[4] = 0.1 μM, 0.5 μM and 2 μM LDN193189, 46 days, qPCR, in a concentration-dependent manner
[5] = 500 ng/ml DKK1 as Wnt inhibitor, cultured for 18 days, qPCR

O=C1[C@H](Cc2ccc(O)cc2)N2C(=O)CCN(C(=O)NCc3ccccc3)[C@H]2CN1Cc1cccc2ccccc12 [ICG-001]
efficiency of inducing CoupTF1-negative Ctip2-positive cells (iPS cells (836B1)): significantly low

c1ccc2c(-c3cnn4cc(-c5ccc(N6CCNCC6)cc5)cnc34)ccnc2c1 [LDN193189, 4-(6-(4-(piperazin-1-yl)phenyl)pyrazolo [1,5-a]pyrimidin-3-yl)quinoline]
cell death in spheres [1]: cell death was often found
cytotoxicity [1]: strongly appeared
CoupTF1-negative Ctip2-positive cells ([2]; 0.1 μM, 0.5 μM and 2 μM LDN193189, 46 days): obtained in a concentration-dependent manner
expression level of CoupTF1 [3, 4]: low
expression level of Sfrp1 [3, 4]: high

Cc1cc(-c2ncc(CC(=O)Nc3ccc(-c4cnccn4)cn3)cc2C)ccn1 [LGK-974]
efficiency of inducing CoupTF1-negative Ctip2-positive cells (iPS cells (836B1)): not found a large difference

SB431542
CoupTF1-negative Ctip2-positive cells ([2]; 10 μM SB43152 as TGFβ inhibitor, 46 days): obtained

B1: DKK1: DKK1 protein, Wnt inhibitor (human NCBI Accession No. NM_012242), R & D (protein, UniProt O94907 32-266, looked up)
Dickkopf-related protein 1: TLNSVLNSNAIKNLPPPLGGAAGHPGSAVSAAPGILYPGGNKYQTIDNYQPYPCAEDEECGTDEYCASPTRGGDAGVQICLACRKRRKRCMRHAMCCPGNYCKNGICVSSDQNHFRGEIEETITESFGNDHSTLDGYSRRTTLSSKMYHTKGQEGSVCLRSSDCASGLCCARHFWSKICKPVLKEGQVCTKHRRKGSHGLEIFQRCYCGEGLSCRIQKDHHQASNSSRLHTCQRH
cells in the back portion of the forebrain induced ([3]; 500 ng/ml DKK1 as Wnt inhibitor, cultured for 18 days): a large number
expression level of CoupTF1 (forebrain back portion marker) [3, 5]: high
expression level of Emx2 (forebrain back portion marker) [3, 5]: high
